Data on 94 compounds can be found in PubChem BioAssay AID624254 (Broad Institute, 2012).

Active and inactive are the calls of the source. How the calls were made is not given here.

Molecular target in one assay: not listed separately
As to the kind of experiment: Quorum luxo inducers, light production, v cholerae bh1651 luxod47e, confirmatory dose response (AID 624254). The conditions noted are these: V. cholerae BH1651 luxOD47E, luciferase light induction, 6 h; at 50 µM (top of the series).
Consider `CCOC(=O)c1cnc(SCC(=O)OCC(=O)NC2CCS(=O)(=O)C2)nc1N` (centres undefined), for which the “activation (light increase)” value is “inactive”. On to `Cc1nc2ccc(C(=O)OCC(=O)N(C)c3ccccc3)cc2nc1C`, for which the “activation (light increase)” value is “inactive”.

In the case of `CCc1nc(NCCCN2CCOCC2)c2oc3ccccc3c2n1`, the “activation (light increase)” value is “inactive”. Take `COC(=O)c1cc(Br)ccc1OC(=O)c1cccnc1`: the “activation (light increase)” value is “inactive”. On to `O=C(Cc1ccc2c(c1)CCCC2)Nc1ccccc1Cl`, for which the “activation (light increase)” value was “inactive”. `CN(C)S(=O)(=O)c1ccc(NC(=S)NC(=O)Cc2ccccc2)cc1`: the “activation (light increase)” value is “inactive”. Consider `CC(=O)Nc1nonc1NC(C)=O`, for which the “activation (light increase)” value is “inactive”. Still for that read-out and setting: the same measure for `O=C(O)CN1CCN(Cc2ccc(F)cc2Cl)C1=O`: “inactive”.

Regarding `C[C@H]1CN([C@@H](C)CO)C(=O)c2cccc(NC(=O)C3CC3)c2O[C@H]1CN(C)S(=O)(=O)c1cccs1`, the “activation (light increase)” value was “inactive”. For the compound `CCOC(=O)c1c(NC(=S)Nc2ccc(Cl)cc2)sc(C)c1C`, the “activation (light increase)” value is “inactive”.

Take `CC(=O)c1cccc(NC(=O)CSc2nc(=O)n(CCN3CCOCC3)c3c2CCCC3)c1`: the “activation (light increase)” value was “inactive”. Turning to `COc1ccc(C(CNC(=O)c2ccc(-c3cccc(C(F)(F)F)c3)o2)N2CCOCC2)cc1` (centres undefined), the “activation (light increase)” value was “inactive”. Regarding `O=c1c2cc(N3CCOCC3)ccc2[nH]c(=S)n1CC1CCCO1` (centres undefined), the “activation (light increase)” value is “inactive”. As to `Cc1cnc(C(=O)OCC(=O)NC(=O)NC(C)C)cn1`, the “activation (light increase)” value is “inactive”.

For the compound `O=c1ncn(-c2cccc(Cl)c2)c2ccccc12`, the “activation (light increase)” value was “inactive”. Take `COc1cc(NC(=O)c2ccccc2)c(OC)cc1NC(=O)CN1C(=O)N(C)C2(CCCCC2)C1=O`: the “activation (light increase)” value is “inactive”. As to `NC(=O)c1nsc(C(=O)N(CC(=O)NCc2ccc(F)cc2)Cc2ccco2)c1N`, the “activation (light increase)” value was “inactive”. With `Cc1ccc(C(=O)OCC(=O)NC2CCCC2)cc1`, the “activation (light increase)” value is “inactive”. For `Cc1onc(-c2ccccc2)c1C(=O)Nc1nc2c(s1)CCCC2`, the “activation (light increase)” value is “inactive”. With `CC(C)c1ccc(OCC(=O)NC2CCCC2)cc1`, the “activation (light increase)” value is “inactive”.

In the case of `COc1ccccc1NC(=O)COC(=O)c1cc2c(s1)CCC2`, the “activation (light increase)” value is “inactive”. Consider `O=C(c1cc2ccccc2cc1O)N1CCN(c2ccccc2O)CC1`, for which the “activation (light increase)” value is “inactive”.

As for `COc1ccccc1N1CCN(C(=O)c2cc3c(s2)CCC3)CC1`, the “activation (light increase)” value is “inactive”. `CCC1C(=O)NCCN1C(=O)CCc1nnc(CCc2ccc(OC)cc2)o1` (centres undefined): the “activation (light increase)” value was “inactive”. For the compound `Cc1cc2c(ncn2C)c(NS(=O)(=O)c2cc(Cl)ccc2Cl)c1C`, the “activation (light increase)” value was “inactive”. Take `Cc1onc(-c2ccccc2)c1C(=O)n1cccn1`: the “activation (light increase)” value was “inactive”.

Regarding `O=C(Nc1cccc(-c2ccc(N3CCOCC3)nn2)c1)c1ccccc1Cl`, the “activation (light increase)” value was “inactive”.

On to `O=C(CNC(=O)c1ccncc1)Nc1ccc(F)c(F)c1`, for which the “activation (light increase)” value is “inactive”. Same read-out and setting: with `COC(=O)[C@H]1C[C@H](C(=O)O)[C@@H](C)C1(C)C` the entry was “inactive”; with `COc1ccc(OC)c(NC(=O)COC(=O)c2cc3c(s2)CCC3)c1`, “inactive”.

In another assay the target is V. cholerae BH1651 luxOD47E, luciferase light induction, 6 h. The description is as above.
Conditions: not given
Turning to `CCOCCCN1CC(C(=O)NCCc2ccc(C)cc2)CC1=O` (centres undefined), the concentration at half-maximal activity (AC50) was 185 nM.

On to `COCc1[nH]nc2c1C1(CCC3(CC1)OCCO3)C(C#N)=C(N)O2`, for which the AC50 was > 50000 nM (inactive).

For `CN(C(=O)Cn1cc(C(F)(F)F)cc(Cl)c1=O)C1CCS(=O)(=O)C1` (centres undefined), the half-maximal activity concentration (AC50) is 1230 nM. As to `CN(CC(=O)Nc1c(Cl)cccc1Cl)C(=O)c1n[nH]c2ccccc12`, the AC50 is 38800 nM. Still for that read-out and setting: with `O=C(c1ccc(C(=O)N2CCOCC2)nc1)N1CCOCC1` the figure was 183 nM; with `CCCCn1nnnc1NCc1ccc(N2CCCC2)cc1`, 38700 nM; with `Cc1ccc2cc3c(NC(=O)c4ccco4)nn(C)c3nc2c1`, below 23.5 nM. On to `Cc1ccc(-n2nnnc2SCC(=O)NCC2CCCO2)cc1C` (centres undefined), for which the AC50 is 33.6 nM. For `COc1cc(NC(=O)Nc2cccc(Cl)c2)c(OC)cc1NC(=O)CN1CCCCC1`, the AC50 was 522 nM. Take `CSc1ccc(C#N)cc1NC(=O)c1ccc(Cl)cc1Cl`: the AC50 was > 50000 nM (inactive). Regarding `Cc1ccc(N2C(=O)C(CN(C)C)C2c2ccccc2)cc1` (centres undefined), the AC50 is 417 nM. Regarding `Cc1cccc(-c2cc3nc4c(c(N5CCC6(CC5)OCCO6)n3n2)CCCC4)c1`, the AC50 is > 50000 nM (inactive). On the same count and under the same terms, the same measure for `O=C(NCc1ccco1)C1CCCN1S(=O)(=O)c1ccc2ccccc2c1` (centres undefined): > 50000 nM (inactive). The same measure, in the same setting: with `O=C(NCCC(=O)N1CCCCC1)c1ccc(Br)cc1` the figure was 25000 nM; with `CCCCCc1c(C)nc(N2CCc3ccccc3C2)[nH]c1=O`, 295 nM; with `Cc1ccc(Cn2c(SCC(C)C)nc3c2c(=O)[nH]c(=O)n3C)cc1`, 166 nM. Same read-out and setting: with `Cc1nc2ncnn2c(C)c1Cc1c(Cl)cccc1Cl` the figure was 1220 nM. As for `Cc1noc(C)c1C(=O)OCC(=O)c1c[nH]c2ccccc12`, the AC50 is > 50000 nM (inactive). Consider `O=C(NCc1ccccn1)C(C(=O)c1ccc(F)cc1)n1ccccc1=O` (centres undefined), for which the AC50 is 49.3 nM.

With `COc1ccc(-c2noc(CCC(=O)N3CCN(c4cccc(C(F)(F)F)c4)CC3)n2)cc1`, the AC50 was 685 nM. As for `COC(=O)C(C)N(c1ccc(C)cc1)S(=O)(=O)c1c(C)[nH]c(=O)[nH]c1=O` (centres undefined), the AC50 is > 50000 nM (inactive).

On to `CC(C)COC(=O)CNc1n[nH]c(=S)[nH]c1=O`, for which the AC50 is below 23.5 nM. Consider `COc1ccc(CNC(=O)c2cc(-n3cnnc3)ccc2Cl)cc1`, for which the AC50 is 4230 nM.

As for `CCC(=O)N(CC)c1nc(-c2cc(OC)ccc2OC)cs1`, the AC50 is 162 nM. In the case of `CSc1nc(C)cc(OCC(=O)N2CCOCC2)n1`, the AC50 was 113 nM. `Cc1noc(C)c1S(=O)(=O)N1CCCC(C(=O)NCCC2=CCCCC2)C1` (centres undefined): the AC50 is 2640 nM. As to `C=C(C)COc1ccc(-c2ncncc2Oc2ccc(OC)cc2)c(O)c1`, the AC50 is 632 nM. Same read-out and setting: the same measure for `O=C(NC1CCCCC1)C(=O)c1c[nH]c2ccccc12`: below 23.5 nM; for `CCC(NC(=O)Nc1nccs1)(C(F)(F)F)C(F)(F)F`: 734 nM; for `O=C(Nc1nnc(-c2ccc3c(c2)OCCO3)o1)C1CCCCC1`: below 23.5 nM. As for `Cn1c(C(=O)NC2CCCCC2)cc2c(=O)n(C)c3ccccc3c21`, the AC50 is 27.3 nM.

For `O=C(CSc1nnc2ccccn12)c1ccc2c(c1)OCCO2`, the concentration at half-maximal activity (AC50) is 17000 nM. Consider `O=c1cc(CSc2ccccn2)c2ccccc2[nH]1`, for which the AC50 is 615 nM. `Cc1ccc(C)c(S(=O)(=O)N2CCN(C(=O)c3n[nH]c(=O)c4ccccc34)CC2)c1`: the concentration at half-maximal activity (AC50) is 2960 nM. Still for that read-out and setting: with `COc1ccc(NC(=O)Nc2cccc3c2O[C@H](CN(C)S(=O)(=O)c2ccccc2)[C@@H](C)CN([C@H](C)CO)C3=O)cc1` the figure was 13200 nM; with `Cc1ccc2onc(CC(=O)O)c2c1`, 8360 nM; with `C[C@H]1CN([C@@H](C)CO)C(=O)c2cccc(NC(=O)Nc3ccc4c(c3)OCO4)c2O[C@@H]1CN(C)S(=O)(=O)c1ccccc1`, 2250 nM. Still for that read-out and setting: the same measure for `O=[N+]([O-])c1ccc(N2CCOCC2)c2c1no[n+]2[O-]`: 1740 nM; for `CCOC(=O)CSc1nc(N)c(C#N)c(-c2cccs2)c1C#N`: 11700 nM. Regarding `COC(=O)c1ccccc1NC(=O)Cn1cc2c(n1)CCC(C)C2` (centres undefined), the half-maximal activity concentration (AC50) is 1480 nM. Take `O=C(CNC(=O)c1cccc(S(=O)(=O)N2CCc3ccccc32)c1)Nc1ccc(F)c(F)c1F`: the concentration at half-maximal activity (AC50) is 516 nM. In the case of `C=CCn1c(NCc2ccccc2)nc2ccccc21`, the AC50 is 11700 nM.

Take `COc1ccccc1NC(=O)c1nn(-c2ccc(Cl)cc2)ccc1=O`: the concentration at half-maximal activity (AC50) was 377 nM. Same read-out and setting: with `COc1ccc(Cl)cc1NC(=O)COC(=O)c1ccc(Br)o1` the figure was 8880 nM; with `Cc1sc(N)nc1-c1ccc(Oc2ccccc2)cc1`, 167 nM.

With `NS(=O)(=O)c1ccc(NC(=O)NC2CCCCC2)cc1`, the AC50 is 2290 nM.

As for `COc1cc(NC(=O)C2=C(C)OCCS2)c(Cl)cc1C(=O)NCCN(C)C`, the AC50 was 463 nM.

Take `CCC(Oc1ccccc1)C(=O)Nc1ccc(-c2nnc(-c3ccco3)o2)cc1` (centres undefined): the AC50 was > 50000 nM (inactive). As to `CCn1cc(C(=O)NC2CCCCC2C)c(=O)c2ccc(C)nc21` (centres undefined), the AC50 is 1080 nM.

`CC1CCCCC1NC(=O)COC(=O)c1ccccc1NC(=O)c1ccco1` (centres undefined): the half-maximal activity concentration (AC50) was 20000 nM. Same read-out and setting: the same measure for `O=C(Nc1nnc(C(F)(F)F)s1)C1COc2ccccc2O1` (centres undefined): 13700 nM; for `COc1ccc(OCCOC(=O)c2cccs2)cc1`: 40300 nM; for `COc1ccc(S(=O)(=O)N2CCN(c3cnccn3)CC2)cc1`: 2580 nM. For `O=C(Nc1nccs1)C(NS(=O)(=O)c1ccc(Br)s1)c1ccccc1` (centres undefined), the concentration at half-maximal activity (AC50) is 15800 nM. Regarding `COc1ccc(OC)c(S(=O)(=O)N2CCC(C(=O)N3CCc4ccccc4C3)CC2)c1`, the half-maximal activity concentration (AC50) is 191 nM. As to `Cn1c(Cn2cnc(Cl)c2Cl)nc2ccccc21`, the AC50 was 210 nM. Consider `C[C@H](CO)N1C[C@H](C)[C@@H](CN(C)S(=O)(=O)c2ccccc2)Oc2c(NC(=O)Nc3ccc4c(c3)OCO4)cccc2C1=O`, for which the half-maximal activity concentration (AC50) is 1800 nM. With `CCOc1ccc(CCNC(=O)C2CCN(c3ccc(N4CCOCC4)nn3)CC2)cc1OCC`, the AC50 is 44.5 nM. The same measure, in the same setting: with `CCOc1ccc(CCNC(=O)COC(=O)Cc2ccc(F)cc2)cc1OCC` the figure was 95.3 nM; with `Cc1cc(Oc2ccc(C#N)cc2)nc(N2CCOCC2)n1`, 208 nM; with `CC(NC(=O)CN1CCN(c2ccccc2F)CC1)c1ccccc1` (centres undefined), > 50000 nM (inactive).

In the case of `COc1ccc(N2CC(C(=O)Nc3cc(C(F)(F)F)ccc3N3CCCC3)CC2=O)c(OC)c1` (centres undefined), the concentration at half-maximal activity (AC50) was 1220 nM.

In the case of `Cc1cc(=O)[nH]c(CN2CCC(c3ccccc3)CC2)n1`, the AC50 was 296 nM. Regarding `O=C(NCc1ccccn1)c1ccc(CS(=O)(=O)Cc2ccc(Cl)cc2)o1`, the AC50 was 20500 nM.

As a reminder, the AC50 is the concentration at which the activity in the assay is half-maximal.
